Measurements taken from ChEMBL document CHEMBL1154437, “Pyrimido[1,2-a]quinoxaline 6-oxide and phenazine 5,10-dioxide derivatives and related compounds as growth inhibitors of Trypanosoma cruzi” (Eur J Med Chem, 2008).

Columns and labels:
Format in all cases: functional
Details in all cases: read-out: GI
[1] = system: Trypanosoma cruzi; assay: Antitrypanosomal activity against Trypanosoma cruzi Tulahuen 2 epimastigotes at 25 uM
[2] = system: Trypanosoma cruzi; assay: Antitrypanosomal activity against Trypanosoma cruzi Y epimastigotes at 25 uM
[3] = system: Trypanosoma cruzi; assay: Antitrypanosomal activity against Trypanosoma cruzi CL Brener epimastigotes at 25 uM

| SMILES | inhibition of growth at 25 µM [1] | inhibition of growth at 25 µM [2] | inhibition of growth at 25 µM [3] |
| --- | --- | --- | --- |
| [O-][n+]1c2ccccc2[n+]([O-])c2cc(O)ccc21 | 0% | 0% | 14% |
| O=[N+]([O-])c1ccc(C2=[N+]([O-])c3ccccc3N3CCCN=C23)cc1 | 9% |  |  |
| O=[N+]([O-])c1ccccc1C1=[N+]([O-])c2ccccc2N2CCCN=C12 | 12% |  |  |
| COc1ccc(C2=[N+]([O-])c3ccccc3N3CCC[N+](C)=C23)cc1 | 9% |  |  |
| C[N+]1=C2C(c3ccc([N+](=O)[O-])cc3)=[N+]([O-])c3ccccc3N2CCC1 | 20% |  |  |
| c1ccc(C2=Nc3ccccc3N3CCCN=C23)cc1 | 29% |  |  |
| C[N+]1=C2C(c3ccccc3)=[N+]([O-])c3ccccc3N2CCC1 | 20% |  |  |
| [O-][N+]1=C(c2ccccc2)C2=NCCCN2c2ccccc21 | 36% |  |  |
| COc1ccc(C2=[N+]([O-])c3ccccc3N3CCCN=C23)cc1 | 36% |  |  |
| [O-][N+]1=C(c2ccc(Cl)cc2)C2=NCCCN2c2ccccc21 | 14% |  |  |
| [O-][N+]1=C(Cc2ccccc2)C2=NCCCN2c2ccccc21 | 13% |  |  |
| CC1=[N+]([O-])c2ccccc2N2CCCN=C12 | 22% |  |  |
| COc1ccc(C2=[N+]([O-])c3ccccc3N3CC(C)(C)CN=C23)cc1 | 13% |  |  |
| [O-][N+]1=C(c2ccccc2Cl)C2=NCCCN2c2ccccc21 | 14% |  |  |
